Results reported in patent US6608111B1, “Method for treating or preventing prostatic conditions” (Southern Illinois University Office of Research, …, priority 1998, dated 2003).
“Also recorded” adds a separate entry of the source.

Experiments:
male Sprague-Dawley rats = test: Example 4: effects on prostate and testis of male rats, 6 weeks; assay type: in vivo, rat; details: for testis histology: Leydig cells / testis histology: spermatogenesis: FIGS. 5a-f; for Prostate Weight as % Body Weight / Seminal Vesicle Weight as % Body Weight / Testis Weight as % Body Weight / Body Weight (g): 0.1 ug/g of body weight once a day, mean ± SEM; for Body Weight (g): n = 10
Procedure: Sixty male Sprague-Dawley rats, 7-8 weeks of age, were randomly assigned to groups of ten animals. Each group was randomly assigned to one of six treatments: Vehicle control (C), Estradiol-17β(E), (−)-Z-BDDA, (+)-Z-BDDA, (−)-HAA, and (+)-HAA. The compounds were all administered at a dose of 0.1 μg/g of body weight in 0.1 cc once a day for 6 weeks. The estrogenic compounds were dissolved in 10% ethanol and 90% olive oil vehicle. A temperature of 21° C. and an artificial 12 h light-dark cycle were maintained in the animal room. All animals were maintained on standard chow in powdered form for six weeks, and then sacrificed after an overnight fast under i.p. pentobarbitol anesthesia (50 mg/kg). Animal weight was measured weekly during the study. During sacrifice, blood was collected via cardiac puncture. Immediately following sacrifice, the fat pads, livers, pituitaries, testes, seminal vesicles, and prostate were removed and weighed, and snap frozen in liquid nitrogen. Prostates and one testis from 2-3 animals in each treatment group were fixed in 10% formalin for histological examination. These tissues were fixed overnight, blocked in paraffin, sectioned at 4 μm, stained with Hematoxylin and Eodsin, cover slipped, and examined microscopically. Quantitative results were subjected to an analysis of variance and means separated by a Tukey's Test (SYSTAT, Chicago, Ill.).

[1] = tested on: primary porcine granulosa cells; test: In situ apoptosis assay in primary porcine granulosa cells; assay type: cell-based; details: for mean apoptosis (% area): 24 hr treatment, 0.1, 1 and 10 μM combined, serum-free MEM, controls 63.4% / 68.4%
Procedure: Porcine ovaries were obtained from local packing plants and transported to the laboratory on ice-cold Hank's balanced salt solution (HBSS). Each of the follicles was aspirated with an insulin syringe, and the follicular fluid was centrifuged at 3000 rpm and 4° C. for 15 min. The supernatant was poured off and the cells were washed in 5 mls of cold HBSS and centrifuged for another 10 min. The cells were again resuspended in HBSS, and the number of viable cells counted under the microscope using a hematocytometer. Once the number of cells was determined, the cells were centrifuged again for 10 min. and resuspended in the appropriate volume of Eagle's minimum essential media (MEM) containing 10% fetal bovine serum (FBS) and antibiotic/antimycotics. The cells were plated at 250,000 per well in 8 chamber microscope slides (Nunc, Naperville, Ill.) which were pre-treated with poly-L-lysine for 10 min. The slides were incubated at 5% CO2/95% air at 37° C. Approximately 12 hours later, the medium was removed by vacuum and replaced with pre-warmed, serum-free MEM. Cells were then treated for 2-3 hrs with MEM only to wash out any estrogen effects from the serum (Winters et al. (1994) Biol. Reprod. 50 (Suppl. 1):113; Suttner et al. (1998) Biol. Reprod. 59 (Suppl.): (Accepted for publication). Following serum-free MEM treatment, cells were treated for 24 hr with (+) or (−) enantiomers of Z-BDDA or estradiol at 0. 1, 1, and 10 μM, or EtOH vehicle control in serum-free MEM. Cells were subsequently processed using an in situ apoptosis assay kit (Apotag-Plus In Situ Apoptosis Kit-Peroxidase, Edition 1.1., Oncor, Gaithersburg, Md., 1995) to study ovarian apoptosis (Suttner et al., 1998). The slides were washed in two changes of PBS for 5 min each, and then quenched in 2% hydrogen peroxide in methanol for 5 min. at room temperature. After pre-treatment with an equilibration buffer, 13 ul of Terminal deoxynucleotidyl Transferase (TdT) diluted with reaction buffer and distilled water were added, and the slides were incubated for 1 h at 37° C. in a humidified chamber. After this 1 h period, the slides were put in pre-warmed stop wash buffer in the incubator for 30 min to stop the reaction. Next, the slides were washed in three changes of PBS for 5 min. each, and the anti-digoxigenin peroxidase was placed on the slides for 30 min. in a humidified chamber at room temperature. […] The degree of apoptosis for the calorimetric apoptosis assay was quantified microscopically using an image analysis system (Optimas 5.23, Optimas Users Guide, 5th Edition, Redmond, Wash.). Ten measurements (captured images) were taken for each concentration based on a pre-determined grid. […] Percentage area of each color was then quantitated using the image analysis system. […]

[2] = tested on: male and female Sprague-Dawley rats; test: Experiment 1: chronic treatment of male and female rats, 4 weeks; assay type: in vivo, rat; details: mean ± SEM; for Food intake: 2.5 ug/g of body weight daily injection; for Food intake / Food intake (g): n = 5
Procedure: Twenty-five male and 25 female Sprague-Dawley rats, 9-10 weeks of age, were randomly assigned to groups of five animals, respectively, as a control group (no treatment) (C), for treatment with vehicle only (V), estradiol (E), (±)-Z-BDDA, or (+)-Z-BDDA. Each animal in group V received a daily 0.1 cc injection of a 10% ethanol-90% olive oil solution; the other treatments received their respective compound as a daily 0.1 cc injection, e.g., 2.5 μg of compound/g of body weight, in a 10% ethanol-90% olive oil solution. A temperature of 21° C. and an artificial 12-h light-dark cycle was maintained in the animal room. All animals were maintained on standard chow in powdered form for four weeks, then sacrificed after an overnight fast under i.p. pentobarbital anesthesia (50 mg/kg). Animal weight and food intake were measured weekly during the study, and the subsequent food-efficiency ratio [FER(g of weight change/g of food intake)] was determined. During sacrifice, blood was collected (via cardiac puncture) for cholesterol measurements. Immediately following sacrifice the fat pads and reproductive organs were removed and weighed.
Experiments 1 and 2 employed a randomized design. All data were analyzed by one-way analysis of variance (ANOVA,)and post-hoc comparisons were made with Tukey pairwise comparisons test. Significance was confirmed at p≦0.05 (SYSTAT 7.0, SPSS INC., 1997), and all values are reported as means±standard error of the mean.

[3] = female rats (uterus), 2.5 ug/g of body weight daily
[4] = female rats, 2.5 ug/g of body weight daily, g of weight change/g of food intake
[5] = female rats, 2.5 ug/g of body weight daily
[6] = male rats (testis), 2.5 ug/g of body weight daily
[7] = male rats, 2.5 ug/g of body weight daily

Compound	testis histology: Leydig cells (male Sprague-Dawley rats; 0.1 μg/g daily)	testis histology: spermatogenesis (male Sprague-Dawley rats; 0.1 μg/g daily)	Prostate Weight as % Body Weight (male Sprague-Dawley rats)	Seminal Vesicle Weight as % Body Weight (male Sprague-Dawley rats)	Testis Weight as % Body Weight (male Sprague-Dawley rats)	Body Weight (g) (male Sprague-Dawley rats)	mean apoptosis (% area) [1] [%]	Food intake ([2]; female rats) [g]	FER (food efficiency ratio) [2, 4]	Cholesterol (mg/dl) [2, 5]	Visceral fat (g) [2, 5]	Uterus/testis weight (g) [2, 6]	Cholesterol (mg/dl) [2, 7]	FER (food efficiency ratio) [2, 7]	Prostate weight (g) [2, 7]	Visceral fat (g) [2, 7]	Food intake (g) [2, 7]	also measured
C[C@]12CCC3c4ccc(O)cc4CCC3[C@@H]1CCC2O (single isomer, unassigned; (+)) [estradiol, (+)-17β-estradiol, reference compound]	small	halted at round (Golgi phase) spermatids	0.05 ± 0.00^1 % Body Weight	0.02 ± 0.00^1 % Body Weight	0.49 ± 0.13^1,4 % Body Weight	207.2 ± 4.6^1 g	46.5	371.6 ± 17.8	0.035 ± 0.011	44.9 ± 15.8^1 mg/dl	0.8 ± 0.1^1 g	0.94 ± 0.13^1,2 g	51.5 ± 9.5^1,2 mg/dl	−0.057 ± 0.012^1,2	0.09 ± 0.01^1,2 g	4.2 ± 0.4^2 g	298.2 ± 18.8^1 g	percent apoptosis ([1]; 24 hr treatment at 10 μM): 23.8%; Uterus/testis weight [2, 3]: 1.58 ± 0.15 g
CC[C@H]1c2ccc3cc(O)ccc3c2CC[C@@]1(C)C(=O)O [(+)-Z-BDDA, (+)-Z-bisdehydrodoisynolic acid]	normal	normal	0.05 ± 0.01^1 % Body Weight	0.23 ± 0.12^2 % Body Weight	0.98 ± 0.15 % Body Weight	234.8 ± 10.1^1,2 g	61.1	315.2 ± 18.4	0.045 ± 0.017^4	35.1 ± 8.6^1 mg/dl	2.1 ± 0.3^1,3 g	0.84 ± 0.06^1,2 g	24.6 ± 2.2^1,2,3 mg/dl	−0.174 ± 0.027^1,2,3,4	0.13 ± 0.04^1,2,3 g	5.1 ± 0.2^2 g	326.0 ± 9.5^1 g	prostate histology (alveoli) (male Sprague-Dawley rats; 0.1 μg/g daily, FIGS. 4a-f): normal alveoli; also recorded: tubules and alveoli being slightly smaller; gross testes weights unadjusted for bodyweight (male Sprague-Dawley rats; 0.1 μg/g daily, data not shown): lighter (P<0.05) than those in control rats; Uterus/testis weight (g) [2, 3]: 2.57 ± 0.79^1,2 g
